Results from PubChem BioAssay (NCI).
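Each compound was tested at five concentrations against cells in 96-well plates for 48 hours. TGI denotes the concentration required for complete inhibition of growth.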

Assays:
Assay in all cases: growth of human tumour cells (NCI), 48 h
[1] = system: DLD-1 colon
[2] = system: OVCAR-3 ovarian
[3] = system: SK-OV-3 ovarian
[4] = system: A498 renal
[5] = system: RPMI-8226 leukemia
[6] = system: HCT-116 colon
[7] = system: SW-620 colon
[8] = system: SNB-19 CNS
[9] = system: KM12 colon
[10] = system: NCI-H460 lung
[11] = system: OVCAR-5 ovarian
[12] = system: K-562 leukemia
[13] = system: SK-MEL-5 melanoma
[14] = system: EKVX NSCLC
[15] = system: HOP-18 NSCLC
[16] = system: MOLT-4 leukemia
[17] = system: HOP-62 NSCLC
[18] = system: SNB-78 CNS
[19] = system: OVCAR-8 ovarian
[20] = system: A549 NSCLC
[21] = system: RXF 393 renal
[22] = system: CAKI-1 renal
[23] = system: HCT-15 colon
[24] = system: SF-539 CNS
[25] = system: NCI-H23 lung
[26] = system: HL-60(TB) leukemia
[27] = system: SR leukemia
[28] = system: DMS 273 small cell lung
[29] = system: M14 melanoma
[30] = system: SK-MEL-28 melanoma
[31] = system: LOX IMVI melanoma
[32] = system: LXFL 529 NSCLC
[33] = system: CCRF-CEM leukemia
[34] = system: KM20L2 colon
[35] = system: UO-31 renal
[36] = system: DMS 114 small cell lung
[37] = system: HOP-92 NSCLC
[38] = system: UACC-62 melanoma
[39] = system: SF-268 CNS
[40] = system: IGROV1 ovarian
[41] = system: M19-MEL melanoma
[42] = system: 786-0 renal
[43] = system: SK-MEL-2 melanoma
[44] = system: TK-10 renal
[45] = system: HT29 colon
[46] = system: MALME-3M melanoma
[47] = system: NCI-H522 lung
[48] = system: SF-295 CNS
[49] = system: UACC-257 melanoma
[50] = system: XF 498 CNS
[51] = system: U251 CNS
[52] = system: ACHN renal
[53] = system: SN12C renal
[54] = system: COLO 205 colon
[55] = system: HCC-2998 colon
[56] = system: OVCAR-4 ovarian
[57] = system: SNB-75 CNS
[58] = system: NCI-H226 lung

Measured: TGI

CCCCCCc1cc2c(C)c(C)c(=O)oc2cc1OCCCOc1cc2oc(=O)c(C)c(C)c2cc1CCCCCC
> 100 µM: [1] | [2] | [3] | [4] | [5] | [6] | [7] | [8] | [9] | [10] | [11] | [12] | [13] | [14] | [15] | [16] | [17] | [18] | [19] | [20] | [21] | [22] | [23] | [24] | [25] | [26] | [27] | [28] | [29] | [30] | [31] | [32] | [33] | [34] | [35] | [36] | [37] | [38] | [39] | [40] | [41] | [42] | [43] | [44] | [45] | [46] | [47] | [48] | [49] | [50] | [51]

COC(c1ccccc1)C(c1ccccc1)N1CCOCC1 (configuration not stated)
> 100 µM: [1] | [2] | [3] | [4] | [5] | [6] | [7] | [8] | [9] | [52] | [10] | [11] | [12] | [13] | [14] | [53] | [15] | [16] | [17] | [18] | [54] | [19] | [20] | [21] | [22] | [24] | [25] | [26] | [28] | [29] | [30] | [31] | [32] | [33] | [34] | [35] | [36] | [37] | [38] | [39] | [40] | [41] | [42] | [43] | [55] | [56] | [44] | [45] | [46] | [47] | [48] | [49] | [57] | [58] | [50] | [51]
